# Values joined by “and” are separate entries in the source; they are usually repeats but may differ in a detail not shown here. Equal entries are not always repeated.
# Columns and labels:
# [1] = test system: acute promyelocytic leukemia; conditions: in vivo; cited from earlier work
# HL-60 cells = experiment: HL-60 differentiation (NBT reduction); assay type: cell-based, human; conditions: day 6
# Experimental: (§1) Differentiation of AML cell lines was assessed by their ability to produce superoxide as measured by reduction of NBT to formazan and by analysis of expression of CD11b surface marker by flow cytometry. For NBT reduction, each cell suspension was mixed with an equal volume of solution containing 1 mg/ml of NBT (Sigma) and 2.5 µg/ml of TPA for 30 minutes at 37° C. After incubation, cells containing the purple formazan deposits and cells devoid of NBT-reducing activity (white cells) in each sample were determined by counting 200 cells under microscope. Data is expressed as a percentage based on the following ratio: purple cells/purple+white cells. For analysis of cell surface antigens, cells were exposed to phycoerythrin (PE)-conjugated murine anti-human CD11b (DAKO Corp., Carpinteria, Calif.). Analysis of fluorescence was performed on a FACScan flow cytometer (Beckton Dickinson, Mountain View, Calif.).
# U937 cells = experiment: U937 differentiation (NBT reduction); assay type: cell-based, human; conditions: day 6
# Experimental: as §1
# NB4 cells [2] = experiment: NB4 cell cycle analysis and Annexin V/propidium iodide assay; assay type: cell-based, human; conditions: 3 days; sodium stibogluconate 250 μg/ml, ATRA 1 μM
# Experimental: […] Briefly, the cells were fixed in cold ethanol and incubated for 30 minutes at 4° C. in the dark with a solution of […], 1 mg/ml RNase and 0.1% NP-40. Analysis was performed immediately after staining using the CELLFIT program (Becton Dickinson, Mountain View, Calif.).
# ] Annexin V staining of exposed membrane phospholipid phosphatidylserine (PS) was done using the Annexin V assay kit (Pharmingen, San Diego, Calif.). Briefly, NB4 cells were cultured in the 10% FCS RPMI 1640 medium in the absence or presence of sodium stibogluconate (250 µg/ml) or ATRA (1 µM) for 3 days. Cells were then washed in PBS twice and stained in binding buffer (10 mM Hepes, pH 7.4; 140 mM NaCl; 2.5 mM CaCl2) containing Annexin V-FITC and propidium iodide for 15 min. The reaction was stopped by adding 10 volumes of binding buffer and analyzed by FACS (Becton Dickinson Facsvantage).
# [3] = test system: Jak2/Stat5 and cellular protein tyrosine phosphorylation in Baf3 cells; experiment: Cellular protein phosphorylation and Western blotting in Baf3 cells; assay type: cell-based, murine; conditions: Baf3 cells
# Experimental: For induction of cellular protein phosphorylation by sodium stibogluconate or pervanadate, Baf3 cells were incubated in 0.1% FCS-RPMI 1640 medium at 37° C. for 16 hours. The cells were then washed twice in RPMI 1640 medium and incubated with sodium stibogluconate or pervanandate (0.1 mM) for various times prior to termination by lysing cells in cold lysis buffer (50 mM Tris, pH 7.4; 150 mM NaCl; 0.2 mM Na3VO4; 20 mm NaF; 1% Nonidet P-40; 2 mM PMSF; 20 µg/ml of Aprotinin and 1 mM of sodium molybdic acid). To determine the effect of sodium stibogluconate or potassium antimonyl tartrate on IL-3-induced Jak/Stat phosphorylation, Baf3 cells were deprived of the growth factor for 16 hours in 0.1% FCS RPMI 1640 medium and then incubated with or without sodium stibogluconate or potassium antimonyl tartrate for 10 minutes. IL-3 was next added to the cell suspension and incubated for various times. The Cells were then harvested and lysed in cold lysis buffer at 4° C. for 45 minutes. Total cell lysates (TCL) were separated in SDS-PAGE gels, blotted onto nitrocellulose membrane (Schleicher & Schuell), probed with specific antibodies and detected using an enhanced chemiluminescence kit (ECL, Amersham, Arlington Heights, Ill.).
# SHP-1 = target: T1, SHP-1 (Mus musculus, UniProt P29351); experiment: In vitro PTPase assay, GST/SHP-1; assay type: biochemical; conditions: 1-1,000 μg/ml
# T1 construct: made in house
# Experimental: In vitro PTPase activities were measured using the commercial protein tyrosine phosphatase assay kit (Upstate Biotechnology, Inc. (“UBI”)) following established procedure known to one of skill in the art. […] Briefly, 0.01 µg of GST/PTPase fusion proteins was incubated in 50 µl of Tris buffer (10 mM Tris, pH 7.4) containing different concentrations of inhibitors or chemicals (0-1,000 µg/ml) at 22° […] 100 µl of Malachite Green solution was added and incubated for 5 minutes, and the absorbance at 660 nm was measured after 5 minutes.
# To assess the reversibility of inhibition of SHP-1 by PTPase inhibitors, GST/SHP-1 fusion protein bound on glutathione beads were pre-incubated in cold Tris buffer or Tris buffer containing the PTPase inhibitors at 4° C. for 30 minutes. The beads were then either subjected to in vitro PTPase assays or washed 3 times in Tris buffer then subjected to in vitro PTPase assays.
# Briefly, individual PTPases (0.1 µg/reaction) in 50 µL of PTPase buffer (50 mM Tris, pH 7.4) were incubated at 22° C. for 10 minutes or as indicated in the absence or presence of inhibitory compounds. Substrates (0.2 mM phosphotyrosine peptide) were then added and allowed to react at 22° C. for 18 hrs. PTPase activity of individual reactions was measured by adding 100 µL of malachite green solution (UBI) and then quantifying the amounts of free phosphate cleaved by the PTPase from the peptide substrate by spectrometry (OD660 nm). […] Relative PTPase activities were calculated based on the formula: (PTPase activity in the presence of an inhibitory compound/PTPase activity in the absence of the compound)× 100%. To assess the reversibility of PTPase inhibition, GST fusion proteins of the PTPases bound on glutathione beads (Pharmacia) were pre-incubated with cold Tris buffer (50 mM Tris, pH 7.0) or Tris buffer containing the inhibitor at 4° C. for 30 minutes. The beads were then washed three times in cold Tris buffer or not washed prior to subjecting to in vitro PTPase assays.
# Baf3 cells = experiment: Baf3 cell proliferation assay; assay type: cell-based, murine
# Experimental: The murine hematopoietic cell line Baf3 was maintained in RPMI 1640 medium supplemented with 10% fetal calf serum (FCS) and murine IL-3 (20 units/ml) as described previously in Damen et al., J. Biol. Chem. 270, 23402 (1995). Human myeloid cell line TF-1 was maintained in RPMI 1640 supplemented with 10% FCS and 40 ng/ml of recombinant human GM-CSF as described previously in Thomassen et al., Clin. Immunol. 95, 85 (2000). For cell proliferation assays, cells were washed in 10% FCS medium twice, resuspended in 10% FCS medium, incubated at 37° C. for 16 hours, and then cultured at 37° C. in 10% FCS medium containing various amounts of cytokines, sodium stibogluconate, or potassium antimonyl tartrate for 3-6 days as indicated. The cell numbers in proliferation assays were determined by an MTT assay or by microscopic cell counting as indicated.
# PTP1B = target: T2, PTP1B (Homo sapiens, UniProt P18031); experiment: In vitro PTPase assay, GST/PTP1B; assay type: biochemical; conditions: 1-1,000 μg/ml
# T2 construct: purchased Upstate Biotechnology Inc. (Lake Placid, N.Y.)
# Experimental: In vitro PTPase activities were measured using the commercial protein tyrosine phosphatase assay kit (Upstate Biotechnology, Inc. (“UBI”)) following established procedure known to one of skill in the art. This assay measures the in vitro dephosphorylation of a synthetic phosphotyrosine peptide of the sequence Arg-Arg-Leu-Ile-Glu-Asp-Ala-Gle-T- -yr-Ala-Ala-Arg-Gly, wherein the tyrosine is phosphorylated (SEQ ID NO: 3). Briefly, 0.01 µg of GST/PTPase fusion proteins was incubated in 50 µl of Tris buffer (10 mM Tris, pH 7.4) containing different concentrations of inhibitors or chemicals (0-1,000 µg/ml) at 22° C. for 10 minutes, followed by addition of 0.2 mM of the phosphotyrosine peptide and incubation at 22° C. for 18 hours. 100 µl of Malachite Green solution was added and incubated for 5 minutes, and the absorbance at 660 nm was measured after 5 minutes.
# In vitro PTPase assays were used to determine the effects of levamisole (Sigma), pentamidine (American Pharmaceutical Partners, Inc.), and ketoconazole (Sigma) on recombinant PTPases, following established procedures (Pathak et al., J. Imumol. 167, 3391 (2001); Pathak et al., Leukemia 16, 2285 (2002), Yi et al., J. Immunol. 169, 5978 (2002)) using a synthetic phosphotyrosine peptide or DiFMUP as the substrate as detailed above in section I.A.2.
# NB4 cells [4] = experiment: NB4 differentiation (NBT reduction, CD11b); assay type: cell-based, human; conditions: GM-CSF alone
# Experimental: as §1
# [5] = sodium stibogluconate 400 μg/ml, GM-CSF 25 ng/ml
# T2 sequence (P18031 whole entry, species assumed): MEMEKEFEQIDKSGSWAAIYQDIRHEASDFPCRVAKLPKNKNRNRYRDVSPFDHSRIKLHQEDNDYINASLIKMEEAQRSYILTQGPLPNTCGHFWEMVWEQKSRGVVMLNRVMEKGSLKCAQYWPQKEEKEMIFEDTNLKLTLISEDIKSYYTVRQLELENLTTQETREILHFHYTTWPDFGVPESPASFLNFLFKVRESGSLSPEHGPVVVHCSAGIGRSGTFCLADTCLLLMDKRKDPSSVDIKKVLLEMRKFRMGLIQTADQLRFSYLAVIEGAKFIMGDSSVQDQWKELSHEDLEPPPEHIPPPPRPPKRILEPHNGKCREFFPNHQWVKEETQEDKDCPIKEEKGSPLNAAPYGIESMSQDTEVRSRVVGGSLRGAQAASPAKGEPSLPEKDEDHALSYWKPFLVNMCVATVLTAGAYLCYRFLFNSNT
# T1 sequence (P29351 whole entry): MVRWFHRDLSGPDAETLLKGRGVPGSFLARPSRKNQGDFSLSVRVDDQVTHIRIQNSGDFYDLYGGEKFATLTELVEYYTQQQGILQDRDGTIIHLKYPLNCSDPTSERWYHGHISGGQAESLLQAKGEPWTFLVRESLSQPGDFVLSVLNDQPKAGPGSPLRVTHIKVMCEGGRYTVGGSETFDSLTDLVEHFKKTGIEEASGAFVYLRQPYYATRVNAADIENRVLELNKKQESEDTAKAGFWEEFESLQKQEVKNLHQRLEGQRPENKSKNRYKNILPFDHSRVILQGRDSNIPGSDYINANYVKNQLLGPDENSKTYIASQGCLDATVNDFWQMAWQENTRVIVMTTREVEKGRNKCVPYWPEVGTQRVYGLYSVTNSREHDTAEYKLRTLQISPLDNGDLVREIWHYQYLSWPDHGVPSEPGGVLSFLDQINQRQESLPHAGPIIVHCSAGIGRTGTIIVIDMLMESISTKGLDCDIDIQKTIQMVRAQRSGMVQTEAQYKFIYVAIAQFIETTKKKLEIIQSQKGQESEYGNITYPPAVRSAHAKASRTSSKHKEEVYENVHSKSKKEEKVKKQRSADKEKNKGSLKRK
compound,measurement,setting,value
"CC1=C(/C=C/C(C)=C/C=C/C(C)=C/C(=O)O)C(C)(C)CCC1 [ATRA, All-trans-retinoic acid]",long term APL-free survival,[1],exceeding 75%
same,HL-60 differentiation (NBT-positive cells),HL-60 cells; [5],90%
same,U937 differentiation (NBT-positive cells),U937 cells; [5],72% and 73%
same,cell cycle distribution of NB4 cells,NB4 cells [2],arrested at G1 phase
O.O.O.O=C([O-])[C@H]([O-])[C@@H]([O-])C(=O)[O-].O=C([O-])[C@H]([O-])[C@@H]([O-])C(=O)[O-].[K+].[K+].[Sb+3].[Sb+3] [potassium antimonyl tartrate],IL-3-induced Stat5 phosphorylation,[3],failed to enhance
same,inhibition of SHP-1,SHP-1,no detectable inhibition
same,toxicity against Baf3 cells,Baf3 cells,marked toxicity
same,IL-3-induced proliferation of Baf3 cells,"Baf3 cells; IL-3 10 units/ml, three days",failed to enhance
same,inhibition of PTP1B,PTP1B,no detectable inhibition
GM-CSF: recombinant human GM-CSF,effect on NB-4 cell differentiation,NB4 cells [4],no detectable effect
same,maximal increase of NBT-positive cells,HL-60 cells; GM-CSF alone,8-10%
same,maximal increase of NBT-positive cells,U937 cells; GM-CSF alone,8-10%

# Source: patent US20080089860A1, “Therapeutic compositions and methods useful in treating cancer” (priority 2006, published 2008)
